The assay concerns the target recombinant DYRK1A kinase (Homo sapiens (Human), UniProt Q13627). Kind of assay: DYRK1A kinase assay (Ser/Thr 18 peptide Z-lyte FRET). It counts as biochemical. Particulars: DYRK1A kinase activity, Z-lyte Ser/Thr 18 peptide, 15 μM ATP; method text calls the value IC50; read-out: EC50 (the source's name). How it is done:
Representative compounds were screened using the assay procedure for DYRK1A kinase activity as described below.
Each compound was dissolved in DMSO as a 10 mM stock and used to prepare compound source plates. Serial dilution (1:3, 11-point dose-response curves from 10 μM to 0.00016 μM) and compound transfer was performed using the ECHO 550 (Labcyte, Sunnyvale, CA) into 1536-well black-walled round bottom plates (Coming).
The DYRK1A kinase assay was run using the Ser/Thr 18 peptide Z-lyte assay kit according to manufacturer's instructions (Life Technologies-a Division of Thermo-Fisher). This is a non-radioactive assay using fluorescence resonance energy transfer (FRET) between coumarin and fluorescein to detect kinase activity which is represented as a ratio of coumarin emission/fluorescein emission.
Briefly, recombinant DYRK1A kinase, ATP and Ser/Thr peptide 18 were prepared in 1X Kinase buffer to final concentrations of 0.25 μg/mL, 15 μM, and 4 μM respectively. The mixture was allowed to incubate with the representative compounds for one hour at room temperature. All reactions were performed in duplicate. Unphosphorylated (“0% Control”) and phosphorylated (“100% control”) forms of Ser/Thr 18 served as control reactions. Additionally, an 11-point dose-response curve of Staurosporine (luM top) was run to serve as a positive compound control.
After incubation, Development Reagent A was diluted in Development Buffer then added to the reaction and allowed to further incubate for one hour at room temperature. The plate was read at Ex 400 Em 455 to detect the coumarin signal and Ex 400 Em 520 to measure the signal (EnVision Multilabel Plate Reader, PerkinElmer).
The Emission ratio (Em) was calculated as a ratio of the coumarin (C) emission signal (at 445 nm)/Fluorescein (F) emission signal (at 520 nm). The percent phosphorylation was then calculated using the following formula: [1−((Em ratio X F100%)-C100%)/((C0%-C100%) +(Em ratio X (F100%−F0%)))]. Dose-response curves were generated, and inhibitory concentration (IC50) values were calculated using non-linear regression curve fit in the Dotmatics' Studies Software (Bishops Stortford, UK).

pIC50: −log10 of the molar value.

As for `COc1nc(N[C@H]2CC[C@](C)(O)CC2)nn2ccc(-c3ccc4nnn(CC(F)F)c4c3)c12` [Compound 725, (1r,4r)-4-((5-(1-(2,2-difluoroethyl)-1H-benzo[d][1,2,3]triazol-6-yl)-4-methoxypyrrolo[2,1-f][1,2,4]triazin-2-yl)amino)-1-methylcyclohexan-1-ol], the pIC50 was 9.22. With `CNC(=O)[C@]1(C)C[C@@H](Nc2nc(OC)c3c(-c4ccc5nccnc5c4)ccn3n2)C1` [Compound 338, trans-3-((4-Methoxy-5-(quinoxalin-6-yl)pyrrolo[2,1-f][1,2,4]triazin-2-yl)amino)-N,1-dimethylcyclobutane-1-carboxamide] the figure was 8.92; with `COc1nc(N[C@H]2CCN(C3COC3)CC2(F)F)nn2ccc(-c3ccc4nc(C)n(CC(F)F)c4c3)c12` [Compound 143, (S)—N-(3,3-Difluoro-1-(oxetan-3-yl)piperidin-4-yl)-5-(1-(2,2-difluoroethyl)-2-methyl-1H-benzo[d]imidazol-6-yl)-4-methoxypyrrolo[2,1-f][1,2,4]triazin-2-amine], 7.97; with `CCC(=O)N[C@]1(C)C[C@H](Nc2nc(OC)c3c(-c4ccc5nccnc5c4)ccn3n2)C1` [Compound 335, N-(cis-3-((4-Methoxy-5-(quinoxalin-6-yl)pyrrolo[2,1-f][1,2,4]triazin-2-yl)amino)-1-methylcyclobutyl)propionamide], 8.70.

For `COc1nc(N[C@@H]2CCC(=O)N(C)C2)nn2ccc(-c3ccc4ncccc4c3)c12` [Compound 1049, (R)-5-((4-Methoxy-5-(quinolin-6-yl)pyrrolo[2,1-f][1,2,4]triazin-2-yl)amino)-1-methylpiperidin-2-one], the pIC50 is 8.31. The value for `COc1nc(N[C@H]2C[C@](C)(NC(C)=O)C2)nn2ccc(-c3cc(F)c4nc(C)n(CC(F)F)c4c3)c12` [Compound 149, N-((1r,3r)-3-((5-(1-(2,2-Difluoroethyl)-4-fluoro-2-methyl-1H-benzo[d]imidazol-6-yl)-4-methoxypyrrolo[2,1-f][1,2,4]triazin-2-yl)amino)-1-methylcyclobutyl)acetamide] was 8.82; that for `COc1nc(N[C@H]2CCN(C3COC3)C[C@H]2F)nn2ccc(-c3ccc4ncn(CC(F)F)c4c3)c12` [Compound 1141, 5-(1-(2,2-Difluoroethyl)-1H-benzo[d]imidazol-6-yl)-N-((3R,4S)-3-fluoro-1-(oxetan-3-yl)piperidin-4-yl)-4-methoxypyrrolo[2,1-f][1,2,4]triazin-2-amine] was 8.85. With `COc1nc(N[C@H]2CC[C@](C)(O)CC2)nn2ccc(-c3ccc4nccnc4c3)c12` [Compound 347, trans-4-((4-Methoxy-5-(quinoxalin-6-yl)pyrrolo[2,1-f][1,2,4]triazin-2-yl)amino)-1-methylcyclohexan-1-ol] the figure was 8.77.

Regarding `COc1nc(N[C@@H]2[C@@H]3COC[C@@H]32)nn2ccc(-c3ccn4nccc4c3)c12` [Compound 80, N-((1R,5S,6s)-3-Oxabicyclo[3.1.0]hexan-6-yl)-4-methoxy-5-(pyrazolo[1,5-a]pyridin-5-yl)pyrrolo[2,1-f][1,2,4]triazin-2-amine], the pIC50 was 7.25. With `c1cnc2cc(-c3ccn4nc(NC5CC6(CCOCC6)C5)nc(OC5COC5)c34)ccc2n1` [Compound 1137, 4-(Oxetan-3-yloxy)-5-(quinoxalin-6-yl)-N-(7-oxaspiro[3.5]nonan-2-yl)pyrrolo[2,1-f][1,2,4]triazin-2-amine], the pIC50 was 8.32.

For `CNC(=O)c1cnn2ccc(-c3ccn4nc(N[C@H]5CC[C@](C)(OC)CC5)nc(OC)c34)cc12` [Compound 405, 5-(4-Methoxy-2-(((1r,4r)-4-methoxy-4-methylcyclohexyl)amino)pyrrolo[2,1-f][1,2,4]triazin-5-yl)-N-methylpyrazolo[1,5-a]pyridine-3-carboxamide], the pIC50 is 9.15.

Turning to `CNC(=O)c1cnc2ccc(-c3ccn4nc(N[C@H]5CC[C@](C)(OC)CC5)nc(OC)c34)cn12` [Compound 445, 6-(4-Methoxy-2-(((1r,4r)-4-methoxy-4-methylcyclohexyl)amino)pyrrolo[2,1-f][1,2,4]triazin-5-yl)-N-methylimidazo[1,2-a]pyridine-3-carboxamide], the pIC50 is 8.68. Regarding `COc1nc(N[C@@H]2CCN(C)CC2(F)F)nn2ccc(-c3ccc4ncnn4c3)c12` [Compound 576, (R)-5-([1,2,4]Triazolo[1,5-a]pyridin-6-yl)-N-(3,3-difluoro-1-methylpiperidin-4-yl)-4-methoxypyrrolo[2,1-f][1,2,4]triazin-2-amine], the pIC50 is 8.14. Consider `COc1nc(N[C@H]2C[C@@H](OC)C2)nn2ccc(-c3cnc4nccn4c3)c12` [Compound 236, 5-(Imidazo[1,2-a]pyrimidin-6-yl)-4-methoxy-N-(cis-3-methoxycyclobutyl)pyrrolo[2,1-f][1,2,4]triazin-2-amine], for which the pIC50 was 9.30. The value for `COc1nc(N[C@@H]2COC[C@H]2O)nn2ccc(-c3ccc4nccnc4c3)c12` [Compound 1093, (3S,4R)-4-((4-Methoxy-5-(quinoxalin-6-yl)pyrrolo[2,1-f][1,2,4]triazin-2-yl)amino)tetrahydrofuran-3-ol] was 8.37; that for `COc1nc(N[C@H]2C[C@@H](OCCO)C2)nn2ccc(-c3ccc4nnn(CC(F)F)c4c3)c12` [Compound 699, 2-(cis-3-((5-(1-(2,2-Difluoroethyl)-1H-benzo[d][1,2,3]triazol-6-yl)-4-methoxypyrrolo[2,1-f][1,2,4]triazin-2-yl)amino)cyclobutoxy)ethan-1-ol] was 8.85. The value for `COc1nc(NC2CCOC(C)(C)C2)nn2ccc(-c3cnc4nccn4c3)c12` (stereo not shown) [Compound 1148, N-(2,2-Dimethyltetrahydro-2H-pyran-4-yl)-5-(imidazo[1,2-a]pyrimidin-6-yl)-4-methoxypyrrolo[2,1-f][1,2,4]triazin-2-amine] was 9.22; that for `COc1nc(NC2CCN(CCF)CC2)nn2ccc(-c3ccn4nccc4c3)c12` [Compound 24, N-(1-(2-Fluoroethyl)piperidin-4-yl)-4-methoxy-5-(pyrazolo[1,5-a]pyridin-5-yl)pyrrolo[2,1-f][1,2,4]triazin-2-amine] was 7.84; that for `COc1nc(NCC(C)(C)C#N)nn2ccc(-c3ccc4nnn(CC(F)F)c4c3)c12` [Compound 695, 3-((5-(1-(2,2-Difluoroethyl)-1H-benzo[d][1,2,3]triazol-6-yl)-4-methoxypyrrolo[2,1-f][1,2,4]triazin-2-yl)amino)-2,2-dimethylpropanenitrile] was 8.89. With `COc1nc(N[C@H]2C[C@@](C)(NC(C)=O)C2)nn2ccc(-c3ccc4ncccc4c3)c12` [Compound 288, N-(cis-3-((4-Methoxy-5-(quinolin-6-yl)pyrrolo[2,1-f][1,2,4]triazin-2-yl)amino)-1-methylcyclobutyl)acetamide] the figure was 8.59. As for `COc1nc(N[C@H]2CC[C@](C)(O)CC2)nn2ccc(-c3ccc4nnn(C(C)C)c4c3)c12` [Compound 681, (1r,4r)-4-((5-(1-Isopropyl-1H-benzo[d][1,2,3]triazol-6-yl)-4-methoxypyrrolo[2,1-f][1,2,4]triazin-2-yl)amino)-1-methylcyclohexan-1-ol], the pIC50 was 8.72. The value for `COc1nc(N[C@H]2CCN(CC(C)(C)O)C[C@H]2F)nn2ccc(-c3ccc4nnn(CC(F)F)c4c3)c12` [Compound 758, 1-((3R,4S)-4-((5-(1-(2,2-Difluoroethyl)-1H-benzo[d][1,2,3]triazol-6-yl)-4-methoxypyrrolo[2,1-f][1,2,4]triazin-2-yl)amino)-3-fluoropiperidin-1-yl)-2-methylpropan-2-ol] was 8.96; that for `COc1nc(N[C@H]2C[C@@](C)(NC(C)=O)C2)nn2ccc(-c3ccc4nccnc4c3)c12` [Compound 333, N-(cis-3-((4-Methoxy-5-(quinoxalin-6-yl)pyrrolo[2,1-f][1,2,4]triazin-2-yl)amino)-1-methylcyclobutyl)acetamide] was 8.96; that for `CC[C@]1(O)CC[C@H](Nc2nc(OC)c3c(-c4ccc5ncnn5c4)ccn3n2)CC1` [Compound 567, (1r,4r)-4-((5-([1,2,4]Triazolo[1,5-a]pyridin-6-yl)-4-methoxypyrrolo[2,1-f][1,2,4]triazin-2-yl)amino)-1-ethylcyclohexan-1-ol] was 8.43. The value for `COCCO[C@H]1CC[C@H](Nc2nc(OC)c3c(-c4ccn5nccc5c4)ccn3n2)CC1` [Compound 16, 4-Methoxy-N-(trans-4-(2-methoxyethoxy)cyclohexyl)-5-(pyrazolo[1,5-a]pyridin-5-yl)pyrrolo[2,1-f][1,2,4]triazin-2-amine] was 7.46.

The values above are taken from patent publication US20240002391A1, “4-ALKOXYPYRROLO[2,1-F][1,2,4]TRIAZINES AND PREPARATION AND USES THEREOF” (BioSplice Therapeutics, Inc., priority 2022, published 2024).
